Source: US20230031406A1, “COMPOUNDS AND COMPOSITIONS FOR TREATING CONDITIONS ASSOCIATED WITH NLRP ACTIVITY” (Novartis AG, priority 2018, published 2023)
Where two headings read alike, the source gives them in different places. Blank lines part the entries; values can stand above or below the molecule they belong to.

Tested on: PMA-differentiated THP-1 cells
Experiment: IL-1β production in PMA-differentiated THP-1 cells stimulated with gramicidin (hTHP-1 assay containing 2% fetal bovine serum; Procedures 1 and 2)
Assay type: cell-based, human
Outline: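 IL-1β release from PMA-differentiated THP-1 macrophage-like cells was triggered by 5 μM gramicidin for 2 h after 1 h compound exposure, then measured by HTRF.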

[1] = Table B2, 2% fetal bovine serum, class symbols, read-out: hTHP-1 IC50
[2] = Homo sapiens, THP-1, Table B2, 2% fetal bovine serum, numeric bounds, read-out: hTHP-1 IC50
[3] = Homo sapiens, THP-1, Table B2, 2% fetal bovine serum, class symbols, read-out: hTHP-1 IC50

IC50 [1]: 200 to 1000 nM
SMILES: CC1(C)CCc2c1nc1c(c2NC(=O)N=S(N)(=O)c2cnc(C(C)(O)CO)s2)CCC1 (centres unmarked) [Compound 201, 2-(1,2-Dihydroxypropan-2-yl)-N′-((3,3-dimethyl-1,2,3,5,6,7-hexahydrodicyclopenta [b,e]pyridin-8-yl)carbamoyl)thiazole-5-sulfonimidamide]

IC50 (Homo sapiens, THP-1, read-out: hTHP-1 IC50 in 2% FBS, hTHP-1 assay containing 2% fetal bovine serum, Table B5): 40 to 200 nM
SMILES: CCn1cc(F)c(S(N)(=O)=NC(=O)Nc2c(C)c(C(F)(F)F)nc3c2CC(C)C3)n1 (single isomer, unassigned) [Compound 1101a]

IC50 (Homo sapiens, THP-1, Table B1, 2% fetal bovine serum, numeric bounds, read-out: Average IC50 of compounds in hTHP-1 assay: hTHP-1 IC50): > 30000 nM
SMILES: CC(C)c1ncc(F)c(C(C)C)c1NC(=O)N=S(N)(=O)c1ccc(CN(C)C)cc1 (single isomer, unassigned) [Compound 132b, (S) or (R)-4-((dimethyl-amino)methyl)-N′-((5-fluoro-2,4-diisopropylpyridin-3-yl)carbamoyl)benzene-sulfonimidamide]

IC50 [1]: 1000 to 5000 nM
SMILES: CC(C)(O)c1sc(S(N)(=O)=NC(=O)Nc2c3c(nc4c2CCC4(C)C)CCC3)cc1F (single isomer, unassigned) [Compound 613b, -N′-((3,3-dimethyl-1,2,3,5,6,7-hexahydrodicyclopenta [b,e]pyridin-8-yl)carbamoyl)-4-fluoro-5-(2-hydroxypropan-2-yl)thiophene-2-sulfonimidamide]

IC50 (Table B4, 2% fetal bovine serum, class symbols, read-out: hTHP-1 IC50): 40 to 200 nM
SMILES: CCn1cc(F)c(S(N)(=O)=NC(=O)Nc2c3c(nc(C)c2-c2ccccc2)CCC3)n1 (single isomer, unassigned) [Example 770, (S) or (R)-1-ethyl-4-fluoro-N′-((2-methyl-3-phenyl-6,7-dihydro-5H-cyclopenta[b]pyridin-4-yl)carbamoyl)-1H-pyrazole-3-sulfonimidamide]

IC50 (Table B3, hTHP-1 assay, 2% fetal bovine serum, class symbols, read-out: IC50): 1000 to 5000 nM
SMILES: Cc1nc2c(c(NC(=O)N=S(N)(=O)c3nn(C(F)F)cc3F)c1-c1ccccc1)CCC2 (single isomer, unassigned) [Example 728, (S) or (R)-1-(difluoromethyl)-4-fluoro-N′-((2-methyl-3-phenyl-6,7-dihydro-5H-cyclopenta[b]pyridin-4-yl)carbamoyl)-1H-pyrazole-3-sulfonimidamide]

IC50 [1]: 5000 to 30000 nM
SMILES: CCC1CCc2c1nc1c(c2NC(=O)N=S(N)(=O)c2cnc(C(C)(C)O)s2)CCC1 (centres unmarked) [Compound 662, N′-((3-ethyl-1,2,3,5,6,7-hexahydrodicyclopenta[b,e]pyridin-8-yl)carbamoyl)-2-(2-hydroxypropan-2-yl)thiazole-5-sulfonimidamide]

IC50 [2]: > 30000 nM
SMILES: CC(C)(O)c1csc(S(N)(=O)=NC(=O)Nc2cc(C3CC3)nc3c2CCC3)c1 (single isomer, unassigned) [Compound 176a, (S) or (R)-N′-((2-cyclopropyl-6,7-dihydro-5H-cyclopenta[b]pyridin-4-yl)carbamoyl)-4-(2-hydroxypropan-2-yl)thiophene-2-sulfonimidamide]

IC50 [2]: > 30000 nM
SMILES: C[C@@H]1CCc2c1nc1c(c2NC(=O)N=S(N)(=O)c2ccn(-c3ccccc3)n2)CCC1 (single isomer, unassigned) [Compound 700a, (S) or (R)-N′-(((R)-3-methyl-1,2,3,5,6,7-hexahydrodicyclopenta [b,e]pyridin-8-yl)carbamoyl)-1-phenyl-1H-pyrazole-3-sulfonimidamide]

IC50 (Table B1, 2% fetal bovine serum, numeric bounds, read-out: Average IC50 of compounds in hTHP-1 assay: hTHP-1 IC50): > 10000 nM
SMILES: CCc1cc(NC(=O)N=S(N)(=O)c2cnc(C(C)(C)O)s2)c2c(n1)CCC2 (single isomer, unassigned) [Compound 137a, (R) or (S)-N′-((2-ethyl-6,7-dihydro-5H-cyclopenta[b]pyridin-4-yl)carbamoyl)-2-(2-hydroxypropan-2-yl)thiazole-5-sulfonimidamide]

IC50 [1]: 5000 to 30000 nM
SMILES: CCc1nc2c(c(NC(=O)N=S(N)(=O)c3cnc(C(C)(C)O)s3)c1C1CC1)CCC2 (single isomer, unassigned) [Compound 630a, (S) or (R)-N′-((3-cyclopropyl-2-ethyl-6,7-dihydro-5H-cyclopenta[b]pyridin-4-yl)carbamoyl)-2-(2-hydroxypropan-2-yl)thiazole-5-sulfonimidamide]

IC50 [3]: 5000 to 30000 nM
SMILES: Cc1c(C(C)(C)C)nc2c(c1NC(=O)N=S(N)(=O)c1cc(C(C)(C)O)cs1)CCC2 (centres unmarked) [Compound 657, N′-((2-(tert-butyl)-3-methyl-6,7-dihydro-5H-cyclopenta[b]pyridin-4-yl)carbamoyl)-4-(2-hydroxypropan-2-yl)thiophene-2-sulfonimidamide]

IC50 [1]: 8 to 40 nM
SMILES: CC1(C)CCc2c1nc1c(c2NC(=O)N=S(N)(=O)c2sc(C(C)(O)CO)cc2F)CCC1 (single isomer, unassigned) [Compound 699b, (S, R) and (R, R) or (R, S) and (S, S)-5-(1,2-Dihydroxypropan-2-yl)-N′-((3,3-dimethyl-1,2,3,5,6,7-hexahydrodicyclopenta [b,e]pyridin-8-yl)carbamoyl)-3-fluorotliophene-2-sulfoni midamide]

IC50 [1]: 5000 to 30000 nM
SMILES: Cc1nc2c(c(NC(=O)N=S(N)(=O)c3cc(C(C)(C)O)cs3)c1C1CC1)CCC2 (single isomer, unassigned) [Compound 623b, (S) or (R)-N′-((3-cyclopropyl-2-methyl-6,7-dihydro-5H-cyclopenta[b]pyridin-4-yl)carbamoyl)-4-(2-hydroxypropan-2-yl)thiophene-2-sulfonimidamide]

IC50 (Table B2, 2% fetal bovine serum, numeric bounds, read-out: hTHP-1 IC50): > 30000 nM
SMILES: CC1CCc2c1nc1c(c2NC(=O)N=S(N)(=O)c2cn(C(C)C)cn2)CCC1 (single isomer, unassigned) [Compound 660b, (S, S) or (R, S) or (S, R) or (R, R)-1-Isopropyl-N′-((3-methyl-1,2,3,5,6,7-hexahydrodicyclopenta [b,e]pyridin-8-yl)carbamoyl)-1H-imidazole-4-sulfonimidamide]

IC50 (Homo sapiens, THP-1, Table B3, hTHP-1 assay, 2% fetal bovine serum, class symbols, read-out: IC50): 5000 to 30000 nM
SMILES: Cc1c(C(F)(F)F)nc2c(c1NC(=O)N=S(N)(=O)c1ccn(C)n1)CCC2 (centres unmarked) [Example 633, 1-Methyl-N′-((3-methyl-2-(trifluoromethyl)-6,7-dihydro-5H-cyclopenta[b]pyridin-4-yl)carbamoyl)-1H-pyrazole-3-sulfonimidamide]

IC50 [3]: 200 to 1000 nM
SMILES: CC(C)n1nc(S(N)(=O)=NC(=O)Nc2c3c(nc4c2CCC4(C)C)CCC3)cc1CO (single isomer, unassigned) [Compound 652a]

IC50 [3]: 200 to 1000 nM
SMILES: Cc1nc2c(c(NC(=O)N=S(N)(=O)c3cnc(C(C)(O)CO)s3)c1C(C)C)CCC2 (centres unmarked) [Compound 627, 2-(1,2-Dihydroxypropan-2-yl)-N′-((3-isopropyl-2-methyl-6,7-dihydro-5H-cyclopenta[b]pyridin-4-yl)carbamoyl)thiazole-5-sulfonimidamide]

IC50 [3]: 200 to 1000 nM
SMILES: CC(C)c1c(C2CC2)nc2c(c1NC(=O)N=S(N)(=O)c1cc(C(C)(C)O)cs1)CCC2 (centres unmarked) [Compound 667, N′-((2-cyclopropyl-3-isopropyl-6,7-dihydro-5H-cyclopenta[b]pyridin-4-yl)carbamoyl)-4-(2-hydroxypropan-2-yl)thiophene-2-sulfonimidamide]

IC50 [1]: 40 to 200 nM
SMILES: CCc1csc(S(N)(=O)=NC(=O)Nc2c3c(nc4c2CC[C@H]4C)CCC3)c1 (single isomer, unassigned) [Compound 721b, (R) or (S)-4-Ethyl-N′-(((R)-3-methyl-1,2,3,5,6,7-hexahydrodicyclopenta[b, e]pyridin-8-yl)carbamoyl)thiophene-2-sulfonimidamide]
